Values of other authors in patent US20160220687A1, “METALLOPROTEINASE-CLEAVABLE ALPHA-AMANITIN-DENDRIMER CONJUGATES AND METHOD OF TREATING CANCER” (priority 2015, published 2016).

Key:
advanced gastric cancer = conditions: patients with advanced gastric cancer, compared to placebo
liver and kidney = conditions: intravenous or intraperitoneal administration
B16F10 melanoma cells = conditions: mice injected with B16F10 melanoma cells

Compound: N#Cc1ccc(C(c2ccc(C#N)cc2)n2cncn2)cc1 [Letrozole]
- MMP2 and MMP9 levels (MCF7 breast cancer cells): efficient reduction

Compound: CNC(=O)[C@@H](NC(=O)[C@H](CC(C)C)[C@H](O)C(=O)NO)C(C)(C)C [Marimastat]
- disease free survival (advanced gastric cancer): significant improvement
- overall survival (advanced gastric cancer): significant improvement

Compound: CC[C@H](C)[C@@H]1NC(=O)CNC(=O)[C@@H]2Cc3c([nH]c4cc(O)ccc34)[S@+]([O-])C[C@H](NC(=O)CNC1=O)C(=O)N[C@@H](CC(N)=O)C(=O)N1C[C@H](O)C[C@H]1C(=O)N[C@@H]([C@@H](C)[C@@H](O)CO)C(=O)N2 [alpha-amanitin]
- pathological effects on the liver and kidney (liver and kidney): serious pathological effects on the liver and kidney

Compound: TIMP1: an inhibitor of MMP9
- number of pulmonary metastases (B16F10 melanoma cells): reduced
